The source of these data is ChEMBL document CHEMBL5653615 (J Biol Chem, 2013).

Test [1] addresses Receptor tyrosine-protein kinase erbB-4 (Homo sapiens) (UniProt Q15303). The test can be described thus: Inhibition of human ERBB4 at 500 nM by HotSpot assay relative to control.
Test [2] addresses Mitogen-activated protein kinase 3 (Homo sapiens) (UniProt P27361). The test can be described thus: Inhibition of human ERK1 at 500 nM by HotSpot assay relative to control.
Test [3] concerns the target Glycogen synthase kinase-3 beta (Homo sapiens) (UniProt P49841). The test can be described thus: Inhibition of human GSK3b at 500 nM by HotSpot assay relative to control.
The target in test [4] is Casein kinase I isoform gamma-2 (Homo sapiens) (UniProt P78368). The test can be described thus: Inhibition of human CK1g2 at 500 nM by HotSpot assay relative to control.
Casein kinase I isoform gamma-2 (Homo sapiens), sequence (P78368 whole entry, looked up, canonical isoform): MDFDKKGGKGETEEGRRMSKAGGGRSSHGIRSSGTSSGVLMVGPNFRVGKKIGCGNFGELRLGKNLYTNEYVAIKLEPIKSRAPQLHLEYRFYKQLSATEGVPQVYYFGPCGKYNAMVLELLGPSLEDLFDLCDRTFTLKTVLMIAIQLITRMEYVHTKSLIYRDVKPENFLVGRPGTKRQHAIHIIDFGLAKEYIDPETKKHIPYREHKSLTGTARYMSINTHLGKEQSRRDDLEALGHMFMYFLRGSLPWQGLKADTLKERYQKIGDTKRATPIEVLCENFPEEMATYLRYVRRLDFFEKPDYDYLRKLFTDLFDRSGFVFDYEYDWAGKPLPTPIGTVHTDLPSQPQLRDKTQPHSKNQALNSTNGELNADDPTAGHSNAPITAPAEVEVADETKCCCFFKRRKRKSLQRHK
Test [5] addresses T1, Protein kinase C epsilon type (Homo sapiens) (UniProt Q02156).
T1 sequence (whole entry): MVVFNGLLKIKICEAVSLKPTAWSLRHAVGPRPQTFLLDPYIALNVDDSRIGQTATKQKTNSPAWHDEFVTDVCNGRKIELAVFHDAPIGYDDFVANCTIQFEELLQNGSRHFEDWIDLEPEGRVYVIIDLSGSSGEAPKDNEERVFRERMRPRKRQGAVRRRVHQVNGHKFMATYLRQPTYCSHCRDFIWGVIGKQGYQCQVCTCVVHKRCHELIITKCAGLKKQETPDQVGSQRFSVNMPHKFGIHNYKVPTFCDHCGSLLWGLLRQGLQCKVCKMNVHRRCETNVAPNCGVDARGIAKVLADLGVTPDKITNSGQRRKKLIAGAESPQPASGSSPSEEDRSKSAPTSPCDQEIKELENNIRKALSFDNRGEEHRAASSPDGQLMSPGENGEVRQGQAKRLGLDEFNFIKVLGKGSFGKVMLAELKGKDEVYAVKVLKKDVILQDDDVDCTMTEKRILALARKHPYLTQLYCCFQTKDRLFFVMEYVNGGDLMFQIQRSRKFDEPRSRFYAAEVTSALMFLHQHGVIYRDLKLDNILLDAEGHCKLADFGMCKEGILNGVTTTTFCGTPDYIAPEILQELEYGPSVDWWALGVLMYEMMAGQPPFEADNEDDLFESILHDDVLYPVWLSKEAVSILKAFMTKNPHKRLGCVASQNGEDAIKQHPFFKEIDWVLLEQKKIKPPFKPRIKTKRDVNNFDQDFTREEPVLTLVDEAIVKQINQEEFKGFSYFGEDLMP
The test can be described thus: Inhibition of human PKCepsilon at 500 nM by HotSpot assay relative to control.

The target in test [6] is Mitogen-activated protein kinase 1 (Homo sapiens) (UniProt P28482). Conditions: dose 500.0 nM.
Mitogen-activated protein kinase 1 (Homo sapiens), sequence (P28482 whole entry): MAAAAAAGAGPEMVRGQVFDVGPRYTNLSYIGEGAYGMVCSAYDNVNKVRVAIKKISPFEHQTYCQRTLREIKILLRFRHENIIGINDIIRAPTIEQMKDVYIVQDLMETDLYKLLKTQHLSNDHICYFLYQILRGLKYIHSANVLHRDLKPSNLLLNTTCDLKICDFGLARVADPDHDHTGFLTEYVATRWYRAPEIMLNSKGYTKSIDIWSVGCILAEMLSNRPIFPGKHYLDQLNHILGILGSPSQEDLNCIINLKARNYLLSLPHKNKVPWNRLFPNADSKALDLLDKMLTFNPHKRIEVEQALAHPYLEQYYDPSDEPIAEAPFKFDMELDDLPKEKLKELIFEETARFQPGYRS
Description: Inhibition of human ERK2 at 500 nM by HotSpot assay relative to control
Test [7] deals with T2, Activin receptor type-1 (Homo sapiens) (UniProt Q04771).
T2 sequence (whole entry): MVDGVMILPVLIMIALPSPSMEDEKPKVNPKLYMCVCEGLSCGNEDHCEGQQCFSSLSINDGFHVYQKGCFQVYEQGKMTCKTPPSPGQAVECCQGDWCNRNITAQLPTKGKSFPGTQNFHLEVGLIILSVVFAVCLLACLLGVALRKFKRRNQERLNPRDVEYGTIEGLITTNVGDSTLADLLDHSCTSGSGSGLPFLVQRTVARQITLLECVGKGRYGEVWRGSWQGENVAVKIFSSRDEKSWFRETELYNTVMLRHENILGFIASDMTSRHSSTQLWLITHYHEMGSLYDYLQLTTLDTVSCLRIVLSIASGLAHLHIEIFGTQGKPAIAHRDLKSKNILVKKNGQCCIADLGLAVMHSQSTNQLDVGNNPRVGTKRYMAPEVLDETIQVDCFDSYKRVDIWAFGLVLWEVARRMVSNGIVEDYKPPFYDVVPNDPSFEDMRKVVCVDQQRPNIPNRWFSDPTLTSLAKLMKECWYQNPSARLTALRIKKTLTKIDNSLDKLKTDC
The test can be described thus: Inhibition of human ALK2 at 500 nM by HotSpot assay relative to control.

For test [8], the target named is Tyrosine-protein kinase CSK (Homo sapiens) (UniProt P41240). The test can be described thus: Inhibition of human CSK at 500 nM by HotSpot assay relative to control.
Tyrosine-protein kinase CSK (Homo sapiens), sequence (P41240 2-450 limits assumed): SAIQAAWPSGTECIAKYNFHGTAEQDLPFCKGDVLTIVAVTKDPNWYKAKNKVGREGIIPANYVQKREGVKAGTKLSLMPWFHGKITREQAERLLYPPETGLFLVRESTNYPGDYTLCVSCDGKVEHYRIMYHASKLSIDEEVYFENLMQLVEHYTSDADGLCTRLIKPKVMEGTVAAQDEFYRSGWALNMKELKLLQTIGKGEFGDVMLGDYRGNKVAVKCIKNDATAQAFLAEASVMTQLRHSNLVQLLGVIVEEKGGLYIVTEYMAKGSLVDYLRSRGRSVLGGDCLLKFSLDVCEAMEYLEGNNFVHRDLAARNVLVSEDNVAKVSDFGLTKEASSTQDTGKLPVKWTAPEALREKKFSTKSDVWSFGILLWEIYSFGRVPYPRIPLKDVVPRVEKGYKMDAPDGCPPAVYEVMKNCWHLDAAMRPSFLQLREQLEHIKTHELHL
Test [9] addresses T3, Cytoplasmic tyrosine-protein kinase BMX (Homo sapiens) (UniProt P51813).
T3 sequence (whole entry): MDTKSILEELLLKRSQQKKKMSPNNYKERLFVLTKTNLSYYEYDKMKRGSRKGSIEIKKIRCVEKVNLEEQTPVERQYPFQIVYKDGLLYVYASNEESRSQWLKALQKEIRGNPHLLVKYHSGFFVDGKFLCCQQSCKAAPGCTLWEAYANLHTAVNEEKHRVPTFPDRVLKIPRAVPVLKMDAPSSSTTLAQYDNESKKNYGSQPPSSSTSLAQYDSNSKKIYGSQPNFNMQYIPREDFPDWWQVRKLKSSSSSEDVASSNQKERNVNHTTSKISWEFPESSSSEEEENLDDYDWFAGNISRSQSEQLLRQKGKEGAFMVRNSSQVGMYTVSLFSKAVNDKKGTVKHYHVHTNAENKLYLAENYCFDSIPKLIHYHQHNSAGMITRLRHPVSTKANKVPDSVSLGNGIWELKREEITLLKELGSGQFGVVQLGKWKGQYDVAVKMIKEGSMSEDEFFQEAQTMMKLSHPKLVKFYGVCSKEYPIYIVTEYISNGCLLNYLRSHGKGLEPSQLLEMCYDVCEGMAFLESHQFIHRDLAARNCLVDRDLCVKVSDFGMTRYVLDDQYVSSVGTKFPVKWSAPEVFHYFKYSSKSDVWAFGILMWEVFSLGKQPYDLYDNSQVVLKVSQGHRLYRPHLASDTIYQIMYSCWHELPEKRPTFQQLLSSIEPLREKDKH
The test can be described thus: Inhibition of human BMX at 500 nM by HotSpot assay relative to control.

The target in test [10] is Serine/threonine-protein kinase MARK1 (Homo sapiens) (UniProt Q9P0L2). The test can be described thus: Inhibition of human MARK1 at 500 nM by HotSpot assay relative to control.
Serine/threonine-protein kinase MARK1 (Homo sapiens), sequence (Q9P0L2 whole entry, looked up): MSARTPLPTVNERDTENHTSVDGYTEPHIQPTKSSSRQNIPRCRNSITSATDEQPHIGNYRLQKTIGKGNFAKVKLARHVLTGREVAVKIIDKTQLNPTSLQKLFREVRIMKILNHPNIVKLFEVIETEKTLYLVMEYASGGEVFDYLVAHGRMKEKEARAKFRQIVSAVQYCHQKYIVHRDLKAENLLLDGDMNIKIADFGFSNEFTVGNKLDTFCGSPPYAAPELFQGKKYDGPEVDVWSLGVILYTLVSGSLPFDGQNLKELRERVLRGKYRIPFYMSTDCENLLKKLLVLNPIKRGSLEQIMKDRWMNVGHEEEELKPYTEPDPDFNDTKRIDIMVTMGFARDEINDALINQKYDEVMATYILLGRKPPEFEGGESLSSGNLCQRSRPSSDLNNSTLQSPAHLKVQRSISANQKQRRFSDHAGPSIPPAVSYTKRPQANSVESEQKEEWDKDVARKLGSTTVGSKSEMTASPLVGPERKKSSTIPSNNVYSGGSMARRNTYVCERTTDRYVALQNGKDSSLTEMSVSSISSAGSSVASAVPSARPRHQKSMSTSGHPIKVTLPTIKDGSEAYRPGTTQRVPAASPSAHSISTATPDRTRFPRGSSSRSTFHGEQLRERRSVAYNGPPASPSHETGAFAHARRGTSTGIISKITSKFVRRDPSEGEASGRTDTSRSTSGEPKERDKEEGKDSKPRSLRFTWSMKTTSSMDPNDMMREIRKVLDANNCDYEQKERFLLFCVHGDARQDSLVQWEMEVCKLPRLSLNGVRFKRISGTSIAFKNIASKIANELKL

Mitogen-activated protein kinase 3 (Homo sapiens), sequence (P27361 whole entry): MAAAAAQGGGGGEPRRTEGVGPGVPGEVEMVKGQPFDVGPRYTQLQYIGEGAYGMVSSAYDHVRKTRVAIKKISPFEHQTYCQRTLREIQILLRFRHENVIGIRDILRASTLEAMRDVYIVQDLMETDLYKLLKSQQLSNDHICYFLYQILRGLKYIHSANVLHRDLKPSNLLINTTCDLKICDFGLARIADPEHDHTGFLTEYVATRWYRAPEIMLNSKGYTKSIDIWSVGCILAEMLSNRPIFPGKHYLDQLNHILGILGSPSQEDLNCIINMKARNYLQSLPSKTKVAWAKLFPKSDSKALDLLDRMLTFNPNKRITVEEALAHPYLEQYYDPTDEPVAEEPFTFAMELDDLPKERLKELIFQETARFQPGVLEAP
Glycogen synthase kinase-3 beta (Homo sapiens), sequence (P49841 whole entry, looked up, canonical isoform): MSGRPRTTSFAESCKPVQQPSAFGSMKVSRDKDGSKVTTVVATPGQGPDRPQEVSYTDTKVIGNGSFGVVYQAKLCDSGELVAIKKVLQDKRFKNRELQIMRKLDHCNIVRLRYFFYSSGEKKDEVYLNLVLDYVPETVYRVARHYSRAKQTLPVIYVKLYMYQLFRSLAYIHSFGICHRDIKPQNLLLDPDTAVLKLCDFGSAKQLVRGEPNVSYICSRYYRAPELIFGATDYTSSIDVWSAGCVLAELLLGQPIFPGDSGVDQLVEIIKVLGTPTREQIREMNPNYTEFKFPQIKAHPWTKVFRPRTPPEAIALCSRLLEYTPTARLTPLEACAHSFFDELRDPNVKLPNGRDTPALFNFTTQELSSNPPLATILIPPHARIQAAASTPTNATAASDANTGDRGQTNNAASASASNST
Receptor tyrosine-protein kinase erbB-4 (Homo sapiens), sequence (Q15303 whole entry): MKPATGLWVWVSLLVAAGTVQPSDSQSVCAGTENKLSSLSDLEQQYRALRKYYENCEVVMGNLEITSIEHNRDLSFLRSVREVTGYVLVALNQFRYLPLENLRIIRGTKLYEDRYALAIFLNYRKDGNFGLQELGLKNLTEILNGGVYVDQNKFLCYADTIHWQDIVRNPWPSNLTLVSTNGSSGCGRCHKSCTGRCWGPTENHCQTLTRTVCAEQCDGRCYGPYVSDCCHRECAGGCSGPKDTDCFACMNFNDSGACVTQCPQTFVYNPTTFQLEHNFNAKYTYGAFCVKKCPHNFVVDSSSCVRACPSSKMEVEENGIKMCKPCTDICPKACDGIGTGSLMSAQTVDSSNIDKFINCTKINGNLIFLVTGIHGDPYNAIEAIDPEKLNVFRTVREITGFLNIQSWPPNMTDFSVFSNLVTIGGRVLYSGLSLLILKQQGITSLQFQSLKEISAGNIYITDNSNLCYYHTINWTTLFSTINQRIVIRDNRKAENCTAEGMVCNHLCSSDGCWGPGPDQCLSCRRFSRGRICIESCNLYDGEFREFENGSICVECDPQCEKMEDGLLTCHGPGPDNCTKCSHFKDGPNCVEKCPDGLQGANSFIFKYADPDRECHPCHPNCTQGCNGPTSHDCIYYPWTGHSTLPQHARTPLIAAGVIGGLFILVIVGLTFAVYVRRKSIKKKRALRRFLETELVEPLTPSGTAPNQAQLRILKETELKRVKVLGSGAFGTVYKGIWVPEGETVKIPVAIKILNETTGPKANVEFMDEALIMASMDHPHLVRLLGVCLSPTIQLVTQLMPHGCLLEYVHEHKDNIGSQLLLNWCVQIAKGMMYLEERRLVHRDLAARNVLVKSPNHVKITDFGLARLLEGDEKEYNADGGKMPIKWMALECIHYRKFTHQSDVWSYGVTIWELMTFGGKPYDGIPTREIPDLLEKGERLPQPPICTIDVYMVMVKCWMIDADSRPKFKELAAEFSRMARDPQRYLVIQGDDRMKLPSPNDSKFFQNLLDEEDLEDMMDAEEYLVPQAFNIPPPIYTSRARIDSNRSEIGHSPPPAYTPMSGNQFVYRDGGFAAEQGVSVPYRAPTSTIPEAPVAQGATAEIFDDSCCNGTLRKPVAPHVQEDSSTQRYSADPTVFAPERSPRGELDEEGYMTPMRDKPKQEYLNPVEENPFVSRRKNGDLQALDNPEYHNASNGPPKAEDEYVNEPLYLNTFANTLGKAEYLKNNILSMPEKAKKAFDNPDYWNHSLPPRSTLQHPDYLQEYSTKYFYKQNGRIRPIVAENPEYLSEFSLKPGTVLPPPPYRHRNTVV

Broadly, the inhibition is the relative decrease from the control value, in per cent. Regarding `Oc1n[nH]c2nnc(-c3c(-c4ccccc4)nn4ccccc34)cc12`, the inhibition in [1] was -0.52%; in test [2] it was -2.01%; in [3], -9.9%; in test [4], 3.49%; in [5], 3.42%; in [6] it was -0.62%. Also, the inhibition in [7] is 0.23%; in test [8], -1.06%; in test [9], 6.43%; in test [10], 4.47%.

As to `Nc1n[nH]c2nnc(-c3c(-c4ccccc4)nn4ccccc34)cc12`, the inhibition in test [1] is 8.64%; in [2], 34.2%; in [3], -9.06%; in test [4], -9.31%; in test [5], 27.3%; in test [6], 12.8%. The inhibition in [7] is -7.19%; in test [8], 1.98%; in [9], 15.6%; in test [10], 2.04%.
